Common to all, as to assay: microscale thermophoresis
Test [1] relates to Dm-HS-7 ∆ s.c. (DNA, aptamer, none (no side-chains)) GAAAGCAGGACTGGAGATCGATTGCAGTTACGTTGCTAGTCCCCTTGATCACCTCCGTCACCTCAGACCGAACTAGAGCTT
To be noted: 5 mM KCl, 1 mM MgCl2, 1 mM CaCl2 added; HBS-P+ buffer, 25 °C.

Test [2] has as its system Dm-HS-3 (DNA, aptamer, HFNAP: side-chain on 5' nucleobase of each coding trinucleotide, positions 19,22,25,...,61 (codon key Figure 1B)) GAAAGCAGGACTGGAGATCGATTATTGTGATTTTGATCTCCTCCATATCCCCTTCCCTACTCGCAGACCGAACTAGAGCTT
To be noted: 5 mM KCl, 1 mM MgCl2, 1 mM CaCl2 added; HBS-P+ buffer, 25 °C.

For test [3], the system named is Dm-reference-based-random-after-selection-4 (DNA, other, HFNAP: side-chain on 5' nucleobase of each coding trinucleotide, positions 19,22,25,...,61 (codon key Figure 1B)) GAAAGCAGGACTGGAGATCATCCTTCCTTATAGCATCGGCCGTTTCCGTTGCCATCCCCCCCACAGACCGAACTAGAGCTT
The conditions noted are these: 5 mM KCl, 1 mM MgCl2, 1 mM CaCl2 added; HBS-P+ buffer, 25 °C.

Test [4] concerns Dm-HS-3 ∆ s.c. (DNA, aptamer, none (no side-chains)) GAAAGCAGGACTGGAGATCGATTATTGTGATTTTGATCTCCTCCATATCCCCTTCCCTACTCGCAGACCGAACTAGAGCTT
The conditions noted are these: 5 mM KCl, 1 mM MgCl2, 1 mM CaCl2 added; HBS-P+ buffer, 25 °C.

Test [5] has as its system Dm-CCS-1 (DNA, aptamer, HFNAP: side-chain on 5' nucleobase of each coding trinucleotide, positions 19,22,25,...,61 (codon key Figure 1B)) GAAAGCAGGACTGGAGATCCTTAATGGCAGCTCCAGCCCTAACCCTGCTGCTGCCTCTGCTGTCAGACCGAACTAGAGCTT
To be noted: 5 mM KCl, 1 mM MgCl2, 1 mM CaCl2 added; HBS-P+ buffer, 25 °C.

In test [6] the test system is Dm-HS-7 (DNA, aptamer, HFNAP: side-chain on 5' nucleobase of each coding trinucleotide, positions 19,22,25,...,61 (codon key Figure 1B)) GAAAGCAGGACTGGAGATCGATTGCAGTTACGTTGCTAGTCCCCTTGATCACCTCCGTCACCTCAGACCGAACTAGAGCTT
To be noted: 5 mM KCl, 1 mM MgCl2, 1 mM CaCl2 added; HBS-P+ buffer, 25 °C.

Test [7] deals with Dm-HS-1 (DNA, aptamer, HFNAP nucleobase side-chains: fluorophenyl at 19; allylamine at 22,25,37; alcohol at 28,34,49; phenol at 31,46; cyclopentyl at 40; cyclopropyl at 43,58; imidazole at 52,55,61) GAAAGCAGGACTGGAGATCGATTCTGGTGCTGTTGATCTCCGCCATTGTGCTCCTACCCTTCACAGACCGAACTAGAGCTT
The conditions noted are these: 5 mM KCl, 1 mM MgCl2, 1 mM CaCl2 added; HBS-P+ buffer, 25 °C.

The test system of test [8] is Dm-HS-9 (DNA, aptamer, HFNAP: side-chain on 5' nucleobase of each coding trinucleotide, positions 19,22,25,...,61 (codon key Figure 1B)) GAAAGCAGGACTGGAGATCGATTATTGTGATTTTGATCTCCCCCATATCCCCTTCCCTACTCGCAGACCGAACTAGAGCTT
The conditions noted are these: 5 mM KCl, 1 mM MgCl2, 1 mM CaCl2 added; HBS-P+ buffer, 25 °C.

Test [9] concerns Dm-HS-1 CGA ∆ s.c. (DNA, aptamer, as Dm-HS-1 but no side-chain at 19: allylamine at 22,25,37; alcohol at 28,34,49; phenol at 31,46; cyclopentyl at 40; cyclopropyl at 43,58; imidazole at 52,55,61) GAAAGCAGGACTGGAGATCGATTCTGGTGCTGTTGATCTCCGCCATTGTGCTCCTACCCTTCACAGACCGAACTAGAGCTT
To be noted: 5 mM KCl, 1 mM MgCl2, 1 mM CaCl2 added; HBS-P+ buffer, 25 °C.

Test [10] relates to Dm-HS-2 ∆ s.c. (DNA, aptamer, none (no side-chains)) GAAAGCAGGACTGGAGATCTATGGTCGCATCGTTGACCCTTGTCCTGCCCCTGTCTCTCTCAACAGACCGAACTAGAGCTT
To be noted: 5 mM KCl, 1 mM MgCl2, 1 mM CaCl2 added; HBS-P+ buffer, 25 °C.

The test system of test [11] is Dm-HS-1 ∆ s.c. (DNA, aptamer, none (no side-chains)) GAAAGCAGGACTGGAGATCGATTCTGGTGCTGTTGATCTCCGCCATTGTGCTCCTACCCTTCACAGACCGAACTAGAGCTT
To be noted: 5 mM KCl, 1 mM MgCl2, 1 mM CaCl2 added; HBS-P+ buffer, 25 °C.

Test [12] has as its system Dm-HS-10 (DNA, aptamer, HFNAP: side-chain on 5' nucleobase of each coding trinucleotide, positions 19,22,25,...,61 (codon key Figure 1B)) GAAAGCAGGACTGGAGATCCTTCGCATCGGCTTTCTCCCTGTCACCCCTGTTCCCCTTGACCGCAGACCGAACTAGAGCTT
To be noted: 5 mM KCl, 1 mM MgCl2, 1 mM CaCl2 added; HBS-P+ buffer, 25 °C.

The subject of test [13] is Dm-HS-4 ∆ s.c. (DNA, aptamer, none (no side-chains)) GAAAGCAGGACTGGAGATCGATTCTGGTGCTGTTGATCTCCGCCATTGTGCTCCTACCCTTCGCAGACCGAACTAGAGCTT
The conditions noted are these: 5 mM KCl, 1 mM MgCl2, 1 mM CaCl2 added; HBS-P+ buffer, 25 °C.

For test [14], the system named is Dm-HS-1 TGG ∆ s.c. (DNA, aptamer, no side-chain at 25 (codon 3 TGG); others as HFNAP: fluorophenyl at 19; allylamine at 22, 37; alcohol at 28, 34, 49; phenol at 31, 46; cyclopentyl at 40; cyclopropyl at 43, 58; imidazole at 52, 55, 61) GAAAGCAGGACTGGAGATCGATTCTGGTGCTGTTGATCTCCGCCATTGTGCTCCTACCCTTCACAGACCGAACTAGAGCTT
The conditions noted are these: 5 mM KCl, 1 mM MgCl2, 1 mM CaCl2 added to HBS-P+; HBS-P+ buffer, 25 °C.

Test [15] relates to Dm-reference-based-random-after-selection-1 (DNA, other, HFNAP: side-chain on 5' nucleobase of each coding trinucleotide, positions 19,22,25,...,61 (codon key Figure 1B)) GAAAGCAGGACTGGAGATCCATGTCCACCGTACCGCTACTGCTACTATTTGCTTCGGTACTGTCAGACCGAACTAGAGCTT
The conditions noted are these: 5 mM KCl, 1 mM MgCl2, 1 mM CaCl2 added; HBS-P+ buffer, 25 °C.

In general, Kd refers to the constant that tells how readily two partners part at equilibrium. On to `COc1cccc2c1C(=O)c1c(O)c3c(c(O)c1C2=O)C[C@@](O)(C(C)=O)C[C@@H]3O[C@H]1C[C@H](N)[C@H](O)[C@H](C)O1`, for which the “Kd ∆ side-chains” value is 2.49 ± 0.12 µM in test [1]; 4.45 ± 0.28 µM in [4]; 1.70 ± 0.17 µM in test [10]; 2.61 ± 0.19 µM in test [11]; 1.81 ± 0.057 µM in test [13]. The Kd in [2] is 4.78 ± 0.95 nM; in test [3], 107.9 ± 6.9 µM; in [5], 16.7 ± 6.0 nM; in test [6], 18.09 ± 5.2 nM; in test [7] it was 12.85 ± 1.6 nM; in [8], 1.13 ± 0.45 nM. The Kd was 231.1 ± 23.6 nM in test [9], 64.68 ± 3.9 nM in [12], 16.0 ± 2.2 nM in test [14] and 63.6 ± 2.4 µM in test [15].

The values are drawn from article PMC9352670 (2022).
